Assay [1] concerns children and adolescents with autism spectrum disorder. The assay can be described thus: Aberrant Behavior Checklist-Community (ABC-C), BRIGHT study. Also noted: species or system human. The note with it: in vivo. The source says: Another test that can be used by clinicians to measure the severity of symptoms of ASD is the Aberrant Behavior Checklist-Community test (ABC-C). The original Aberrant Behavior Checklist (ABC) was designed to assess behavioral concerns of adults within institutional settings. The original ABC was later adapted to address patients who are not institutionalized and specifically to address subjects diagnosed with ASD. The Aberrant Behavior Checklist-Community (ABC-C) is used by clinicians, doctors, and researchers to access certain behaviors in non-institutionalized patients with ASD. […]
An exploratory open-label safety, tolerability and efficacy study of Zygel™ ZYN002 transdermal gel to 37 children and adolescents with autism spectrum disorder was conducted. […] ASD was confirmed by Diagnostic and Statistical Manual of Mental Disorders, 5th edition (DSM-5) diagnostic criteria to assess the safety and efficacy of ZYN002 in treating ASD-related behaviors as measured by a variety of efficacy assessments. […]
Subjects were administered a 250 or 500 mg total daily dose, administered twice daily, of CBD in the form of ZYN002 CBD transdermal gel for 14 weeks. […] The trial evaluated multiple efficacy assessments, including the ABC-C, PRAS-ASD, Autism Parenting Stress Index, Autism Impact Measure (AIM), and Clinical Global Impression-Severity (CGI-S) and Improvement (CGI-I). […]

In assay [2] the test system is patients with FXS and comorbid ASD. The experiment in a line: Pooled analysis of Week 12 change in ABC-C Irritability versus placebo. It is filed as in vivo, human. The source says:
The data collected from the studies presented herein, and other similar studies were pooled together and analyzed. […] The subjects had moderate to severe symptoms of ASD (ADOS-2, comparison score greater than, or equal to, 5). The data presented in Table 2 is the Week 12 change in ABC-C Irritability of all patients. In previous studies (such as presented in Example 1, Table 1) the data was enriched by removing the non-completers from the analysis and only presenting data from the completers.

Turning to `C=C(C)C1CCC(C)=CC1c1c(O)cc(CCCCC)cc1O` (stereo not drawn) [CBD, 2-[3-methyl-6-(1-methylethenyl)-2-cyclohexen-1-yl]-5-pentyl-1,3-benzenediol], the “improvement in irritability, PRAS score >37 compared to ≤37” value in assay [1] was “twice as much improvement in irritability”. Further, the “improvement in irritability, ABC-CFXS Social Avoidance score >7 compared to ≤7” value in assay [2] (ASD subjects) is given as “twice as much improvement in irritability”. Moreover, in assay [2] (in vivo), the “subjects showing an improvement in irritability, high social avoidance and/or anxiety scores compared to lesser scores” value was “about twice as many subjects”.
